Source: ChEMBL document CHEMBL1201862, “PubChem BioAssay data set” (2004)
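Assay format: 96-well plates, 48-hour exposure. At the GI50, growth is halved.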 Active and inactive are the calls of the source. Cut-off read from the data, not from the text of the source: active = GI50 up to about 1.1 µM and inactive = higher. Where a SMILES comes first, the peptide text is derived from it. [ ]: non-standard residue; d: D form. The star is where a group is joined. mTyr = N[CH](Cc1cccc(O)c1)C(=O)O; Cbz = O=C(OCc1ccccc1)*; OBn = c1ccc(CO*)cc1

Key:
Assay in all cases: DTP human tumour cell line panel, 48 h
SK-OV-3 = system: SK-OV-3
IGROV-1 = system: IGROV-1
KM12 = system: KM12
NCI-H522 = system: NCI-H522
SR = system: SR
HL-60 = system: HL-60
MOLT-4 = system: MOLT-4
SF-539 = system: SF-539
M14 = system: M14
SK-MEL-5 = system: SK-MEL-5
HOP-62 = system: HOP-62
HCT-116 = system: HCT-116
CCRF-CEM = system: CCRF-CEM
NCI-H460 = system: NCI-H460
A498 = system: A498
RXF 393 = system: RXF 393
EKVX = system: EKVX
OVCAR-5 = system: OVCAR-5

Row | SMILES | GI50 (SK-OV-3) | GI50 (IGROV-1) | GI50 (KM12) | GI50 (NCI-H522) | GI50 (SR) | GI50 (HL-60) | GI50 (MOLT-4) | GI50 (SF-539) | GI50 (M14) | GI50 (SK-MEL-5) | GI50 (HOP-62) | GI50 (HCT-116) | GI50 (CCRF-CEM) | GI50 (NCI-H460) | GI50 (A498) | GI50 (RXF 393) | GI50 (EKVX) | GI50 (OVCAR-5)
1 | O=C1Nc2ccc(Br)cc2/C1=N/Nc1ccc([N+](=O)[O-])cc1 | 19.5 µM (inactive) | 38.8 µM (inactive) | 24.6 µM (inactive) | 31.3 µM (inactive) | 22.8 µM (inactive) | 12.6 µM (inactive) | 34.3 µM (inactive) | 14.2 µM (inactive) | 23.6 µM (inactive) | 25 µM (inactive) | 18.9 µM (inactive) | 17.1 µM (inactive) | 33 µM (inactive) | 17.4 µM (inactive) | 20.7 µM (inactive) | 19.5 µM (inactive) | 23.9 µM (inactive) | –
2 | COc1ccc2oc(C(=O)O)c3c2c1CCC3CCC(=O)O (stereo not drawn) | > 100 µM (inactive) | > 100 µM (inactive) | > 100 µM (inactive) | > 100 µM (inactive) | > 100 µM (inactive) | > 100 µM (inactive) | > 100 µM (inactive) | > 100 µM (inactive) | – | > 100 µM (inactive) | – | > 100 µM (inactive) | > 100 µM (inactive) | > 100 µM (inactive) | > 100 µM (inactive) | > 100 µM (inactive) | > 100 µM (inactive) | > 100 µM (inactive)
3 | CCCCNC(=O)C1C2CCC(O2)C1C(=O)O (stereo not drawn) | 23.1 µM (inactive) | > 100 µM (inactive) | 56.2 µM (inactive) | 18.9 µM (inactive) | 18.8 µM (inactive) | – | 18.1 µM (inactive) | 21 µM (inactive) | 14.2 µM (inactive) | 20.2 µM (inactive) | 34.7 µM (inactive) | 12 µM (inactive) | – | 41 µM (inactive) | 12.7 µM (inactive) | 2.07 µM (inactive) | 13.7 µM (inactive) | > 100 µM (inactive)
4 | CCCCCCCC/C=C\CCCCCCCC(=O)NCCN(CCN)C(=O)CCCCCCC/C=C\CCCCCCCC | > 100 µM (inactive) | > 100 µM (inactive) | – | – | > 100 µM (inactive) | > 100 µM (inactive) | > 100 µM (inactive) | – | > 100 µM (inactive) | > 100 µM (inactive) | > 100 µM (inactive) | > 100 µM (inactive) | > 100 µM (inactive) | > 100 µM (inactive) | > 100 µM (inactive) | – | – | > 100 µM (inactive)
5 | CCCCCCCCCCC/C(=N/O)c1ccc(O)c2ncccc12 | – | – | 6.41 µM (inactive) | 2.31 µM (inactive) | – | 0.19 µM (active) | – | 2.02 µM (inactive) | 1.76 µM (inactive) | 1.85 µM (inactive) | 4.26 µM (inactive) | 6.64 µM (inactive) | – | 3.65 µM (inactive) | – | 7.67 µM (inactive) | 3.52 µM (inactive) | 3.15 µM (inactive)
6 | O=C1c2ccccc2C2(O)Oc3cccc(O)c3C12O (stereo not drawn) | > 100 µM (inactive) | > 100 µM (inactive) | > 100 µM (inactive) | > 100 µM (inactive) | > 100 µM (inactive) | > 100 µM (inactive) | > 100 µM (inactive) | > 100 µM (inactive) | > 100 µM (inactive) | > 100 µM (inactive) | > 100 µM (inactive) | > 100 µM (inactive) | > 100 µM (inactive) | > 100 µM (inactive) | > 100 µM (inactive) | – | > 100 µM (inactive) | > 100 µM (inactive)
7 | N=C(N)NS(=O)(=O)c1ccc(Nc2c3ccccc3nc3c(C(=O)N4CCN(CCO)CC4)cccc23)cc1 | 2.7 µM (inactive) | > 100 µM (inactive) | > 100 µM (inactive) | > 100 µM (inactive) | > 100 µM (inactive) | > 100 µM (inactive) | > 100 µM (inactive) | > 100 µM (inactive) | > 100 µM (inactive) | > 100 µM (inactive) | > 100 µM (inactive) | > 100 µM (inactive) | > 100 µM (inactive) | > 100 µM (inactive) | > 100 µM (inactive) | > 100 µM (inactive) | > 100 µM (inactive) | > 100 µM (inactive)
8 | COc1ccc2nc3cc(Cl)ccc3c(NCCC(=O)OCC(O)C(O)C(O[C@H](C)C(=O)NC(C)C(=O)NC(CCC(N)=O)C(=O)OCc3ccccc3)C(C=O)NC(C)=O)c2c1 (stereo partly drawn) | 18.8 µM (inactive) | 16 µM (inactive) | 19.1 µM (inactive) | 14.5 µM (inactive) | 4.03 µM (inactive) | 25.1 µM (inactive) | 15.4 µM (inactive) | 16.8 µM (inactive) | 19.5 µM (inactive) | 16.6 µM (inactive) | 16.1 µM (inactive) | 18 µM (inactive) | 23.2 µM (inactive) | 16.2 µM (inactive) | 21 µM (inactive) | – | 18.4 µM (inactive) | 23.8 µM (inactive)
9 | O=C(Nc1cc(Cl)c(Cl)cc1Cl)C(=O)C(C(=O)c1ccc2ccccc2c1)C1OC(=O)c2ccccc21 (stereo not drawn) | 60.4 µM (inactive) | 16.3 µM (inactive) | 14.6 µM (inactive) | 12 µM (inactive) | 4.66 µM (inactive) | 13.2 µM (inactive) | – | 3.39 µM (inactive) | 21.8 µM (inactive) | 11.8 µM (inactive) | 16.1 µM (inactive) | 11 µM (inactive) | – | 10.4 µM (inactive) | 12 µM (inactive) | 3.95 µM (inactive) | 15.4 µM (inactive) | 16.5 µM (inactive)
10 | O=C(CSc1c2ccccc2nc2ccccc12)Nc1ccccc1-c1ccccc1NC(=O)CSc1c2ccccc2nc2ccccc12 | 80.4 µM (inactive) | 18.4 µM (inactive) | 21.5 µM (inactive) | 9.42 µM (inactive) | 11.1 µM (inactive) | 6.17 µM (inactive) | 5.27 µM (inactive) | 14.4 µM (inactive) | 24.4 µM (inactive) | 12.8 µM (inactive) | 31.8 µM (inactive) | 27.2 µM (inactive) | > 24.6 µM (inactive) | 29 µM (inactive) | 23 µM (inactive) | 21.5 µM (inactive) | 21.4 µM (inactive) | 56.6 µM (inactive)
11 | O=C1CNNC(Cn2nc(-c3ccccc3)c3ccccc3c2=O)=N1 | > 100 µM (inactive) | > 100 µM (inactive) | > 100 µM (inactive) | > 100 µM (inactive) | > 100 µM (inactive) | > 100 µM (inactive) | > 100 µM (inactive) | > 100 µM (inactive) | > 100 µM (inactive) | > 100 µM (inactive) | > 100 µM (inactive) | > 100 µM (inactive) | > 100 µM (inactive) | > 100 µM (inactive) | > 100 µM (inactive) | – | – | > 100 µM (inactive)
12 | O=C(O)CCSCCCN1C(=O)c2ccccc2C1=O | > 100 µM (inactive) | > 100 µM (inactive) | > 100 µM (inactive) | – | > 100 µM (inactive) | – | > 100 µM (inactive) | > 100 µM (inactive) | – | > 100 µM (inactive) | – | > 100 µM (inactive) | – | – | – | > 100 µM (inactive) | > 100 µM (inactive) | > 100 µM (inactive)
13 | Cc1ccc(S(=O)(=O)c2c(N)c3nccn3c3nc4ccccc4nc23)cc1 | > 100 µM (inactive) | 13.5 µM (inactive) | > 100 µM (inactive) | > 100 µM (inactive) | > 100 µM (inactive) | > 100 µM (inactive) | > 100 µM (inactive) | > 100 µM (inactive) | > 100 µM (inactive) | > 100 µM (inactive) | 81.7 µM (inactive) | > 100 µM (inactive) | > 100 µM (inactive) | > 100 µM (inactive) | – | – | > 100 µM (inactive) | > 100 µM (inactive)
14 | COC(=O)CC(=O)C[P+](c1ccccc1)(c1ccccc1)c1ccccc1 | > 218 µM (inactive) | > 218 µM (inactive) | > 218 µM (inactive) | 37.7 µM (inactive) | 58.1 µM (inactive) | 48.9 µM (inactive) | 74 µM (inactive) | 197 µM (inactive) | – | 158 µM (inactive) | > 218 µM (inactive) | 60.7 µM (inactive) | 55.3 µM (inactive) | 148 µM (inactive) | – | > 218 µM (inactive) | > 218 µM (inactive) | –
15 | COC(=O)C1=C(O)C(O)=C(C(=O)OC)C1 | > 100 µM (inactive) | > 100 µM (inactive) | > 100 µM (inactive) | > 100 µM (inactive) | – | > 100 µM (inactive) | > 100 µM (inactive) | > 100 µM (inactive) | > 100 µM (inactive) | > 100 µM (inactive) | > 100 µM (inactive) | > 100 µM (inactive) | > 100 µM (inactive) | > 100 µM (inactive) | > 100 µM (inactive) | > 100 µM (inactive) | > 100 µM (inactive) | > 100 µM (inactive)
16 | COC(=O)CC(C(C(=O)OCc1ccccc1)C(C)O)N1C(=O)OC(c2ccccc2)C1c1ccccc1 (stereo not drawn) | – | > 100 µM (inactive) | – | – | 81.5 µM (inactive) | > 100 µM (inactive) | 44.2 µM (inactive) | > 100 µM (inactive) | > 100 µM (inactive) | 74 µM (inactive) | > 100 µM (inactive) | > 100 µM (inactive) | > 100 µM (inactive) | > 100 µM (inactive) | > 100 µM (inactive) | > 100 µM (inactive) | > 100 µM (inactive) | –
17 | COC(=O)C(Cc1cccc(O)c1)NC(=O)C(CC(=O)OCc1ccccc1)NC(=O)OCc1ccccc1 (stereo not drawn) (Cbz-Asp(OBn)-[mTyr]-OMe; configuration not given here) | – | 30.6 µM (inactive) | > 100 µM (inactive) | – | 46.1 µM (inactive) | 35.4 µM (inactive) | 32.1 µM (inactive) | – | > 100 µM (inactive) | > 100 µM (inactive) | > 100 µM (inactive) | > 100 µM (inactive) | – | 15.4 µM (inactive) | > 100 µM (inactive) | > 100 µM (inactive) | > 100 µM (inactive) | > 100 µM (inactive)
